Test results from patent US20260317250A1, “TRIAZOLE METHANOL AS NITRIFICATION INHIBITOR FOR FERTILIZER APPLICATION” (SABIC AGRI-NUTRIENTS COMPANY, priority 2022, published 2026).

System: nitrification of the ammonia nitrogen (NH4—N) in the sludge
Experiment: Nitrification batch test in crop soil/water sludge under nitrifying conditions
Conditions: for inhibition of nitrification of ammonia nitrogen (NH4—N) in the sludge: Tables 3 and 4, in words; for nitrification process: first 8 hours; for NH4—N Conversion Rate During First 24 Hours: dosed NH4—N 50 mg/l; for NH4—N Conversion Rate During First 24 Hours / COD / NH4—N concentration / NO3—N concentration: DCD 5.8 mg/l
Procedure: Crop soil and water were combined to form a sludge. The freshly-acquired sludge contained a high amount of nitrate nitrogen, therefore, the sludge was pretreated to reduce the chance of denitrification during analysis. Ethylene glycol was added to the sludge and the resulting sludge was purged with nitrogen gas for 24 hours to eliminate the nitrate nitrogen. After 24 hours, the sludge was aerated to eliminate the residual chemical oxygen demand (COD) which could be present. COD refers to the amount of oxygen required to degrade all oxidizable compounds in a measured sample.
A nitrification batch test was performed under nitrifying conditions. The activity of nitrification inhibitor Formula II compound was compared to that of the nitrification inhibitor dicyandiamide (DCD). COD and NH4—N were added to the sludge with one of the Formula II compound or DCD. COD, NH4—N, and NO3—N concentrations were monitored over time (t=0, 2, 4, 6, 8, 24 and 29 hours). The COD and NH4—N removal was calculated from the analysis results. Glycol was included as a reference in the test.
The pH and oxygen content were also monitored during the tests. The pH level was kept between 7 and 8 at the beginning of the tests by adding 1N HCl or 1N NaOH. Oxygen was constantly purged into the sludge solutions throughout the test to get maximum aeration.
Table 2 includes the concentrations assessed for the five batch tests. A sample concentration of approximately 10% compared to the NH4—N concentration was employed.
Values shown in brackets are below the quantification limit and are indicative. Measurements taken at time=0 were taken 60 seconds after mixing the sludge with the indicated substance. The nitrification process was nominal for both DCD and Formula II compound during the first 8 hours, then nitrification rates increased. The NH4—N and NO3—N concentrations were tested at 29 hours to verify that the nitrification process was still ongoing.

[1] = first 24 hours, Formula II compound 7.6 mg/l
[2] = time 0 h (60 seconds after mixing), dosed COD 800 mg O2/l, NH4—N 50 mg/l, Formula II compound 7.6 mg/l
[3] = time 2 h, dosed COD 800 mg O2/l, NH4—N 50 mg/l, Formula II compound 7.6 mg/l
[4] = time 4 h, dosed COD 800 mg O2/l, NH4—N 50 mg/l, Formula II compound 7.6 mg/l
[5] = time 6 h, dosed COD 800 mg O2/l, NH4—N 50 mg/l, Formula II compound 7.6 mg/l
[6] = time 8 h, dosed COD 800 mg O2/l, NH4—N 50 mg/l, Formula II compound 7.6 mg/l
[7] = time 24 h, dosed COD 800 mg O2/l, NH4—N 50 mg/l, Formula II compound 7.6 mg/l
[8] = time 29 h, dosed COD 800 mg O2/l, NH4—N 50 mg/l, Formula II compound 7.6 mg/l

Structure (SMILES)	inhibition of nitrification of ammonia nitrogen (NH4—N) in the sludge	nitrification process (in words)	NH4—N Conversion Rate During First 24 Hours [1] [mg NH4—N/l · h]	COD [2] [mg O2/l]	NH4—N concentration [2] [mg/L]	NO3—N concentration [2] [mg/L]	COD [3] [mg O2/l]	NH4—N concentration [3] [mg/L]	NO3—N concentration [3] [mg/L]	COD [4] [mg O2/l]	NH4—N concentration [4] [mg/L]	NO3—N concentration [4] [mg/L]	COD [5] [mg O2/l]	NH4—N concentration [5] [mg/L]	NO3—N concentration [5] [mg/L]	COD [6] [mg O2/l]	NH4—N concentration [6] [mg/L]	NO3—N concentration [6] [mg/L]	COD [7] [mg O2/l]	NH4—N concentration [7] [mg/L]	other results
N#CNC(=N)N [DCD, dicyandiamide, reference compound]	effective at inhibiting the nitrification of the ammonia nitrogen (NH4—N) in the sludge	nominal	1.5	757	45.9	8.6	558	43.0	5.5	360	39.4	8.9	190	39.7	7.4	121	33.2	7.3	48	9.9	NO3—N concentration [7]: 39.0 mg/L; NH4—N concentration [8]: 4.0 mg/L; NO3—N concentration [8]: 47.2 mg/L
OCn1cncn1 [Formula II compound, (1H-1,2,4-triazole-1-yl)-methanol]	effective at inhibiting the nitrification of the ammonia nitrogen (NH4—N) in the sludge	nominal	0.9	718	45.2	8.8	497	41.6	13.8	314	40.3	11.8	204	42.0	7.2	158	37.9	< 2.3	60	23.8	effectiveness at inhibiting nitrification compared with DCD (first 24 hours, in words): more effective at inhibiting nitrification during the first 24 hours; NO3—N concentration, indicative value in brackets (below the quantification limit) [6]: 1.5 mg/L; NO3—N concentration [7]: 16.2 mg/L; NH4—N concentration [8]: 22.9 mg/L; NO3—N concentration [8]: 20.4 mg/L
